A value given as a limit tells only on which side of the number the result lay.

Assay [1] concerns inflamed colonic mucosa from ulcerative colitis patients. As to the kind of experiment: Ex-vivo culture of colon biopsies from ulcerative colitis patients, cytokine release (Protocol 1). In kind it is cell-based, human. The following applies: UC colon biopsies, two patients; PF-02545920 0.1 μM and 1 μM, TAK-063 1 uM; 24 h; compared to DMSO vehicle. Here is the method: The effect of selective PDE10A inhibition was tested on inflamed colonic mucosa from ulcerative colitis patients taken during routine endoscopy (Protocol 1 detailed below). These samples retain a disease phenotype in ex-vivo culture, secrete high basal levels of inflammatory cytokines, and represent a highly relevant and translational disease model. The effect of the PDE10A inhibitors on levels of the inflammatory cytokines IL-6 and IL-8 released from these tissue samples were measured. Both IL-6 and IL-8 are key regulators in ulcerative colitis pathology and their levels correlate with disease severity (Waldner M J et al. Master regulator of intestinal disease: IL-6 in chronic inflammation and cancer development. Semin Immunol. 26(1), 75-9 (2014); Bernardo D et al. IL-6 promotes immune responses in human ulcerative colitis and induces a skin-homing phenotype in the dendritic cells and T-cells they stimulate. Eur J Immunol. 42(5), 1337-53 (2012); Pearl D S, Cytokine mucosal expression in ulcerative colitis, the relationship between cytokine release and disease activity. J Crohns Colitis. 7(6), 481-9 (2013)).
These colon biopsies retain an inflammatory phenotype and secrete high levels of inflammatory cytokines in ex-vivo culture.
Biopsy tissue was obtained from inflamed colonic mucosa from ulcerative colitis or Crohn's disease patients during routine endoscopy. […] Biopsies were incubated in organ culture for 24 h with the addition of positive control compounds, or specific PDE10A inhibitors. Supernatants collected at the end of the experiment were snap-frozen and stored at −70° C. For the measurement of cytokines, the frozen culture supernatants were thawed and analysed for levels of the inflammatory cytokines using Luminex cytokine assay kits (R&D Systems) and an R&D Systems MAGPIX® analyser. Mean values±SDs were calculated for the levels of spontaneous cytokine production measured in biopsy culture supernatants from each treatment group.

A further assay concerns other PDE family members. Conditions: literature value; read-out: IC50s for other PDE family members; cited from earlier work.
The test system of assay [2] is inflamed colonic mucosa from Crohn's Disease patients. In words: Ex-vivo culture of colon biopsies from Crohn's disease patients, cytokine release (Protocol 1). The class given is cell-based, human. The following applies: 0.1 uM; 2 independent CD patient biopsies; compared to DMSO vehicle. As for the experimental part:
In addition, we tested the effect of selective PDE10A inhibition using 0.1 uM PF-2545920 on inflamed colonic mucosa from Crohn's Disease patients taken during routine endoscopy (Protocol 1).
Biopsy tissue was obtained from inflamed colonic mucosa from ulcerative colitis or Crohn's disease patients during routine endoscopy. Ex-vivo biopsy cultures for the analysis of inflammatory cytokine biomarkers were run as previously described (Vossenksmper A. et al. A CD3-specific antibody reduces cytokine production and alters phosphoprotein profiles in intestinal tissues from patients with inflammatory bowel disease. Gastroenterology, 147, 172-183 (2014)). Biopsies were incubated in organ culture for 24 h with the addition of positive control compounds, or specific PDE10A inhibitors. Supernatants collected at the end of the experiment were snap-frozen and stored at −70° C. For the measurement of cytokines, the frozen culture supernatants were thawed and analysed for levels of the inflammatory cytokines using Luminex cytokine assay kits (R&D Systems) and an R&D Systems MAGPIX® analyser. Mean values±SDs were calculated for the levels of spontaneous cytokine production measured in biopsy culture supernatants from each treatment group.

Assay [3] has as its system inflamed colonic mucosa from pharmacotherapy treatment-refractory ulcerative colitis patients. In words: Ex-vivo culture of resected colon tissue from treatment-refractory ulcerative colitis patients, TNFα release (Protocol 2). The class given is cell-based, human. Conditions: 1 μM; two UC patients; SEB present; about 18 hours; compared to DMSO vehicle.
Assay [4] deals with isolated human neutrophil. As to the kind of experiment: In vitro assay of IL-8 neutrophil activation. The class given is cell-based.
Assay [5] addresses T1, Human PDE10A2 (Homo sapiens (Human), UniProt Q9Y233). In words: biochemical. The class given is biochemical. Conditions: human PDE10A2 0.25 nM, cGMP 3 μM. As for the experimental part: Semi Log compound dilutions starting at a final concentration of 50 μM were dispensed into a black 384 well plate alongside, DMSO and an Inhibited control using the Echo Acoustic dispenser. […] Data was analysed using a 4-parameter fit.

The target of assay [6] is T1, Human PDE10A2. In words: cell-based. Conditions: Forskolin 10 μM; read-out: cAMP HTRF Assay in HEK 293 rhPDE10A2 cell line (pIC50) (converted). As for the experimental part: Semi log compound dilutions starting at a final concentration of 10 μM were dispensed into a white 384 well plate, alongside DMSO and an Inhibited control using the Tecan D300e digital dispenser. HEK 293 cells overexpressing recombinant human PDE10A2 were seeded on top of the compounds at 2500 cells/well in a volume 5 μL/well. The plate was incubated at room temperature for 60 minutes. To induce endogenous cAMP, 5 μL/well of Forskolin at a final assay concentration of 10 μM was added to the plate. The plate was incubated at room temperature for a further 45 minutes. cAMP HTRF detection reagents were added, and the plate was incubated for 60 minutes at room temperature. […] Data was analysed using a 4-parameter fit.

T1 sequence (Q9Y233 267-1055): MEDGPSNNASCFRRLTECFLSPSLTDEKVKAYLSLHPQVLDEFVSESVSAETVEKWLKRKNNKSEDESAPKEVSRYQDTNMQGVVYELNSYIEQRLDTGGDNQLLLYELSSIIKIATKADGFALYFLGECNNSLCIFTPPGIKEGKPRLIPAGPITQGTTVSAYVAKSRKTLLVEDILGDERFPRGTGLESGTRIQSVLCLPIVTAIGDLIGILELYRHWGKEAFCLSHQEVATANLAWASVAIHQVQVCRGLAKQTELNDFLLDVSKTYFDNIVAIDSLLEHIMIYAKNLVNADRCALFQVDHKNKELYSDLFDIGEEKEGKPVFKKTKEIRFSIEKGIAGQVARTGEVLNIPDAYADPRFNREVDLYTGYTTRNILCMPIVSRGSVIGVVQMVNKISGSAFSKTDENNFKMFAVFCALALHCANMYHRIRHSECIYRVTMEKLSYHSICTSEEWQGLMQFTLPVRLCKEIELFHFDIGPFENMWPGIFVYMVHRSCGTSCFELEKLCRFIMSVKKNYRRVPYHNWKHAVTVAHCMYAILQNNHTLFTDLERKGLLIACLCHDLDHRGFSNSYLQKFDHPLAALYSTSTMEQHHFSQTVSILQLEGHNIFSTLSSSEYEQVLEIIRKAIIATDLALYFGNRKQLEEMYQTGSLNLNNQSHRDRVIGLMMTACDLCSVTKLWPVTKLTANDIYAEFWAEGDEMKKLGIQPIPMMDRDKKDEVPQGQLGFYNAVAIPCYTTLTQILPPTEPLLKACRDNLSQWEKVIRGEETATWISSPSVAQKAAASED

As for `COc1cn(-c2ccc(-n3cccn3)cc2F)nc(-c2ccnn2-c2ccccc2)c1=O` [TAK-063, 1-[2-fluoro-4-(1H-pyrazol-1-yl)phenyl]-5-methoxy-3-(1-phenyl-1H-pyrazol-5-yl)pyridazin-4(1H)-one], in assay [1], the “secreted levels of IL-6” value is “significantly reduced” and the “secreted levels of IL-8” value is listed as “significantly reduced”. In addition, the IC50 with other PDE family members is above 5000 nM.

As to `Cn1cc(-c2ccncc2)c(-c2ccc(OCc3ccc4ccccc4n3)cc2)n1` [PF-02545920], in assay [2], the “secreted levels of IL-6” value is listed as “significantly reduced” and the “secreted levels of IL-8” value was “significantly reduced”. In assay [1], the “secreted levels of IL-6” value was “significantly reduced” and the “secreted levels of IL-8” value is “significantly reduced”. In addition, the “secreted levels of TNFα” value in assay [3] is “significantly reduced”. In addition, the “IL-8 induced neutrophil activation” value in assay [4] is “dose dependently inhibited”. In addition, in the assay with other PDE family members, the IC50 was above 1000 nM.

As to `C[C@H]1COCCN1c1nc(C#Cc2nc(-c3ccccc3)c[nH]2)nc2c1ncn2C` [Example 30, (S)-3-Methyl-4-(9-methyl-2-((4-phenyl-1H-imidazol-2-yl)ethynyl)-9H-purin-6-yl)morpholine], the “PDE10A2 Phosphate Sensor Enzyme Assay (pIC50)” value at Human PDE10A2 [5] was 8.97. In addition, on Human PDE10A2 [6], the IC50 was above 1000 nM.

Turning to `Cn1cc(-c2ccccc2)nc1C#Cc1nc(N2C[C@H]3COC[C@H]3C2)c2cnn(C3COC3)c2n1` [Example 19, (3aR,6aS)-5-(6-((1-Methyl-4-phenyl-1H-imidazol-2-yl)ethynyl)-1-(oxetan-3-yl)-1H-pyrazolo[3,4-d]pyrimidin-4-yl)hexahydro-1H-furo[3,4-c]pyrrole], the “PDE10A2 Phosphate Sensor Enzyme Assay (pIC50)” value at Human PDE10A2 [5] is 9.41. Besides, the IC50 on Human PDE10A2 [6] is 11.2 nM.

Take `CCn1ncc2c(N3C[C@H]4COC[C@H]4C3)nc(C#Cc3nc(-c4ccccc4)cn3C)nc21` [Example 17, (3aR,6aS)-5-(1-Ethyl-6-((1-methyl-4-phenyl-1H-imidazol-2-yl)ethynyl)-1H-pyrazolo[3,4-d]pyrimidin-4-yl)hexahydro-1H-furo[3,4-c]pyrrole]: at Human PDE10A2 [5], the “PDE10A2 Phosphate Sensor Enzyme Assay (pIC50)” value came out at 10.50. The IC50 on Human PDE10A2 [6] was 0.331 nM.

As for `CN(C)CCOc1cccc(-c2c[nH]c(C#Cc3nc(N4C[C@H]5COC[C@H]5C4)c4cnn(C)c4n3)n2)c1` [Example 10, 2-[3-[2-[2-[4-[(3aS,6aR)-1,3,3a,4,6,6a-Hexahydrofuro[3,4-c]pyrrol-5-yl]-1-methyl-pyrazolo[3,4-d]pyrimidin-6-yl]ethynyl]-1H-imidazol-4-yl]phenoxy]-N,N-dimethyl-ethanamine], the “PDE10A2 Phosphate Sensor Enzyme Assay (pIC50)” value at Human PDE10A2 [5] is listed as 10.4. The IC50 on Human PDE10A2 [6] was 0.661 nM.

Regarding `Cn1cc(-c2ccccc2)nc1C#Cc1nc(N2C[C@H]3COC[C@H]3C2)c2ncn(C)c2n1` [Example 20, (3aR,6aS)-5-(9-Methyl-2-((1-methyl-4-phenyl-1H-imidazol-2-yl)ethynyl)-9H-purin-6-yl)hexahydro-1H-furo[3,4-c]pyrrole], the “PDE10A2 Phosphate Sensor Enzyme Assay (pIC50)” value at Human PDE10A2 [5] stood at 9.53. At Human PDE10A2 [6], the IC50 is 8.71 nM.

For `Cn1cc(-c2ccccc2)nc1C#Cc1nc(N2CC3(COC3)C2)c2ncn(C)c2n1` [Example 1, 6-[9-Methyl-2-[2-(1-methyl-4-phenyl-imidazol-2-yl)ethynyl]purin-6-yl]-2-oxa-6-azaspiro[3.3]heptane], the “PDE10A2 Phosphate Sensor Enzyme Assay (pIC50)” value on Human PDE10A2 [5] was found to be 9.26. Moreover, the IC50 at Human PDE10A2 [6] is 1.17 nM.

For the compound `Cn1cnc2c(N3C[C@H]4COC[C@H]4C3)nc(C#Cc3nc(-c4cccnc4)c[nH]3)nc21` [Example 31, (3aR,6aS)-5-(9-Methyl-2-((4-(pyridin-3-yl)-1H-imidazol-2-yl)ethynyl)-9H-purin-6-yl)hexahydro-1H-furo[3,4-c]pyrrole], the “PDE10A2 Phosphate Sensor Enzyme Assay (pIC50)” value at Human PDE10A2 [5] is recorded as 8.95. In addition, the IC50 at Human PDE10A2 [6] was 3.98 nM.

In the case of `Cn1cc(-c2ccccc2)nc1C#Cc1nc(N2CC3(COC3)C2)c2cnn(CC3CNC3)c2n1` [Example 8, 6-[1-(Azetidin-3-ylmethyl)-6-[2-(1-methyl-4-phenyl-imidazol-2-yl)ethynyl]pyrazolo[3,4-d]pyrimidin-4-yl]-2-oxa-6-azaspiro[3.3]heptane], the “PDE10A2 Phosphate Sensor Enzyme Assay (pIC50)” value at Human PDE10A2 [5] stood at 8.45. Also, the IC50 on Human PDE10A2 [6] is 5.75 nM.

`C[C@@H]1COCCN1c1nc(C#Cc2nc(-c3ccccc3)c[nH]2)nc2c1ncn2C` [Example 29, (R)-3-Methyl-4-(9-methyl-2-((4-phenyl-1H-imidazol-2-yl)ethynyl)-9H-purin-6-yl)morpholine]: the “PDE10A2 Phosphate Sensor Enzyme Assay (pIC50)” value on Human PDE10A2 [5] is reported as 9.92. The IC50 on Human PDE10A2 [6] was 3.47 nM.

Turning to `Cn1cc(-c2ccccc2)nc1C#Cc1nc(N2C[C@H]3COC[C@H]3C2)c2cnn(CC3CC3)c2n1` [Example 16, (3aR,6aS)-5-(1-(Cyclopropylmethyl)-6-((1-methyl-4-phenyl-1H-imidazol-2-yl)ethynyl)-1H-pyrazolo[3,4-d]pyrimidin-4-yl)hexahydro-1H-furo[3,4-c]pyrrole], at Human PDE10A2 [5], the “PDE10A2 Phosphate Sensor Enzyme Assay (pIC50)” value worked out at 10.10. The IC50 at Human PDE10A2 [6] was 4.17 nM.

Take `C[C@H]1COCCN1c1nc(C#Cc2nc(-c3ccccc3)cn2C)nc2c1CCNC2` [Example 13, (3S)-3-Methyl-4-[2-[2-(1-methyl-4-phenyl-imidazol-2-yl)ethynyl]-5,6,7,8-tetrahydropyrido[3,4-d]pyrimidin-4-yl]morpholine]: the “PDE10A2 Phosphate Sensor Enzyme Assay (pIC50)” value on Human PDE10A2 [5] is recorded as 8.92. Further, the IC50 on Human PDE10A2 [6] is above 1000 nM.

With `Cn1cnc2c(N3CC4(COC4)C3)nc(C#Cc3nc(-c4ccccc4)c[nH]3)nc21` [Example 7, 6-[9-Methyl-2-[2-(4-phenyl-1H-imidazol-2-yl)ethynyl]purin-6-yl]-2-oxa-6-azaspiro[3.3]heptane], the “PDE10A2 Phosphate Sensor Enzyme Assay (pIC50)” value at Human PDE10A2 [5] stood at 9.22. In addition, the IC50 on Human PDE10A2 [6] was 2.95 nM.

Regarding `C[C@@H]1COCCN1c1nc(C#Cc2nc(-c3cccnc3)c[nH]2)nc2c1ncn2C` [Example 32, (R)-3-Methyl-4-(9-methyl-2-((4-(pyridin-3-yl)-1H-imidazol-2-yl)ethynyl)-9H-purin-6-yl)morpholine], the “PDE10A2 Phosphate Sensor Enzyme Assay (pIC50)” value on Human PDE10A2 [5] is 9.90. Besides, the IC50 at Human PDE10A2 [6] is 2.34 nM.

For the compound `Cn1cnc2c(N3CC4(COC4)C3)nc(C#Cc3nc(-c4ccccc4)cn3CCN3CCOCC3)nc21` [Example 5, 6-[9-Methyl-2-[2-[1-(2-morpholinoethyl)-4-phenyl-imidazol-2-yl]ethynyl]purin-6-yl]-2-oxa-6-azaspiro[3.3]heptane], on Human PDE10A2 [5], the “PDE10A2 Phosphate Sensor Enzyme Assay (pIC50)” value was 9.37. For the same compound, at Human PDE10A2 [6], the IC50 is 0.427 nM.

Source of the values: patent US20240343729A1 (priority 2021, published 2024).
